According to US12522585B2, “Method for preparing 2-chloro-n-(1-cyanocyclopropyl)-5-[2′-methyl-5′-(pentafluoroethyl)-4′-(trifluoromethyl)-2′h-1,3′-bipyrazol-4-yl]benzamide” ([…], priority 2020, dated 2026):

Assay: TGA of the product prepared in example 6
Type: physicochemical
Settings: up to 150° C.
From the text: The product prepared in example 6 was investigated by TGA.

## Cn1nc(C(F)(F)C(F)(F)F)c(C(F)(F)F)c1-n1cc(-c2ccc(Cl)c(C(=O)NC3(C#N)CC3)c2)cn1 [example 6, 2-chloro-N-(1-cyanocyclopropyl)-5-[2′-methyl-5′-(pentafluoroethyl)-4′-(trifluoromethyl)-2′H-1,3′-bipyrazol-4-yl]benzamide]
  loss of mass (TGA): no loss of mass
